Data as given in ChEMBL document CHEMBL4673219, “Novel 5,6-disubstituted pyrrolo[2,3-d]pyrimidine derivatives as broad spectrum antiproliferative agents: Synthesis, cell based assays, kinase profile and molecular docking study” (Bioorg Med Chem, 2018).
“And” between values parts separate entries of the source, which are not always exact repeats. Equal entries are not always repeated.

Experiments:
PC-3 = assay: Growth inhibition of human PC-3 cells assessed as growth percentage at 10 uM incubated for 48 hrs by sulforhodamine B assay relative to control; type: functional; details: read-out: Activity
SF-295 [1] = assay: Growth inhibition of human SF-295 cells assessed as growth percentage at 100 uM incubated for 48 hrs by sulforhodamine B assay relative to control; type: functional; details: read-out: Activity
OVCAR-8 = assay: Growth inhibition of human OVCAR-8 cells incubated for 48 hrs by sulforhodamine B assay; type: functional; details: for CC50: read-out: LC50 (the source's name)
SF-295 [2] = assay: Growth inhibition of human SF-295 cells assessed as growth percentage at 1 uM incubated for 48 hrs by sulforhodamine B assay relative to control; type: functional; details: read-out: Activity
SW-620 = assay: Growth inhibition of human SW-620 cells assessed as growth percentage at 10 uM incubated for 48 hrs by sulforhodamine B assay relative to control; type: functional; details: read-out: Activity
SNB-75 = assay: Growth inhibition of human SNB-75 cells assessed as growth percentage at 10 uM incubated for 48 hrs by sulforhodamine B assay relative to control; type: functional; details: read-out: Activity
MOLT-4 = assay: Growth inhibition of human MOLT-4 cells incubated for 48 hrs by sulforhodamine B assay; type: functional
HCT-116 = assay: Antiproliferative activity against human HCT-116 cells assessed as cell growth inhibition at 10 uM measured after 72 hrs by MTT assay relative to control; type: functional; details: read-out: GI
HT-29 [3] = assay: Growth inhibition of human HT-29 cells assessed as growth percentage at 1 uM incubated for 48 hrs by sulforhodamine B assay relative to control; type: functional; details: read-out: Activity
NCI-H322M [4] = assay: Growth inhibition of human NCI-H322M cells assessed as growth percentage at 1 uM incubated for 48 hrs by sulforhodamine B assay relative to control; type: functional; details: read-out: Activity
KM12 [5] = assay: Growth inhibition of human KM12 cells assessed as growth percentage at 10 uM incubated for 48 hrs by sulforhodamine B assay relative to control; type: functional; details: read-out: Activity
HT-29 [6] = assay: Growth inhibition of human HT-29 cells assessed as growth percentage at 0.1 uM incubated for 48 hrs by sulforhodamine B assay relative to control; type: functional; details: read-out: Activity
HCT-15 = assay: Growth inhibition of human HCT-15 cells incubated for 48 hrs by sulforhodamine B assay; type: functional; details: for TGI: HCT-15
OVCAR-3 = assay: Growth inhibition of human OVCAR-3 cells assessed as growth percentage at 0.01 uM incubated for 48 hrs by sulforhodamine B assay relative to control; type: functional; details: read-out: Activity
K562 = assay: Growth inhibition of human K562 cells assessed as growth percentage at 0.1 uM incubated for 48 hrs by sulforhodamine B assay relative to control; type: functional; details: read-out: Activity
BT-549 = assay: Growth inhibition of human BT-549 cells assessed as growth percentage at 0.01 uM incubated for 48 hrs by sulforhodamine B assay relative to control; type: functional; details: read-out: Activity
NCI-H23 = assay: Growth inhibition of human NCI-H23 cells assessed as growth percentage at 0.1 uM incubated for 48 hrs by sulforhodamine B assay relative to control; type: functional; details: read-out: Activity
UO-31 [7] = assay: Growth inhibition of human UO-31 cells assessed as growth percentage at 0.1 uM incubated for 48 hrs by sulforhodamine B assay relative to control; type: functional; details: read-out: Activity
NCI/ADR-RES [8] = assay: Growth inhibition of human NCI/ADR-RES cells incubated for 48 hrs by sulforhodamine B assay; type: functional; details: for CC50: read-out: LC50 (the source's name)
MCF7 = assay: Growth inhibition of human MCF7 cells assessed as growth percentage at 1 uM incubated for 48 hrs by sulforhodamine B assay relative to control; type: functional; details: read-out: Activity
HT-29 [9] = assay: Growth inhibition of human HT-29 cells assessed as growth percentage at 0.01 uM incubated for 48 hrs by sulforhodamine B assay relative to control; type: functional; details: read-out: Activity
SR = assay: Growth inhibition of human SR cells assessed as growth percentage at 1 uM incubated for 48 hrs by sulforhodamine B assay relative to control; type: functional; details: read-out: Activity
[10] = molecular target: High affinity nerve growth factor receptor (Homo sapiens, UniProt P04629); assay: Inhibition of human Trk-A using myelin basic protein as substrate incubated for 40 mins in presence of [gamma33P]ATP by scintillation counting method
RPMI-8226 = assay: Growth inhibition of human RPMI-8226 cells assessed as growth percentage at 0.1 uM incubated for 48 hrs by sulforhodamine B assay relative to control; type: functional; details: read-out: Activity
NCI-H522 = assay: Growth inhibition of human NCI-H522 cells assessed as growth percentage at 100 uM incubated for 48 hrs by sulforhodamine B assay relative to control; type: functional; details: read-out: Activity
MDA-MB-231 = assay: Growth inhibition of human MDA-MB-231/ATCC cells incubated for 48 hrs by sulforhodamine B assay; type: functional; details: for TGI: MDA-MB-231
SK-BR-3 = assay: Antiproliferative activity against human SK-BR-3 cells assessed as cell growth inhibition measured after 72 hrs by MTT assay; type: functional
KM12 [11] = assay: Growth inhibition of human KM12 cells assessed as growth percentage at 1 uM incubated for 48 hrs by sulforhodamine B assay relative to control; type: functional; details: read-out: Activity
NCI-H322M [12] = assay: Growth inhibition of human NCI-H322M cells incubated for 48 hrs by sulforhodamine B assay; type: functional; details: for CC50: 48 h, read-out: LC50 (the source's name)
HOP-62 [13] = assay: Growth inhibition of human HOP-62 cells incubated for 48 hrs by sulforhodamine B assay; type: functional
SF-268 = assay: Growth inhibition of human SF-268 cells incubated for 48 hrs by sulforhodamine B assay; type: functional
NCI-H460 = assay: Growth inhibition of human NCI-H460 cells incubated for 48 hrs by sulforhodamine B assay; type: functional
HOP-62 [14] = assay: Growth inhibition of human HOP-62 cells assessed as growth percentage at 0.01 uM incubated for 48 hrs by sulforhodamine B assay relative to control; type: functional; details: read-out: Activity
Hs-578T = assay: Growth inhibition of human Hs-578T cells incubated for 48 hrs by sulforhodamine B assay; type: functional
SNB-19 = assay: Growth inhibition of human SNB-19 cells assessed as growth percentage at 10 uM incubated for 48 hrs by sulforhodamine B assay relative to control; type: functional; details: read-out: Activity
NCI/ADR-RES [15] = assay: Growth inhibition of human NCI/ADR-RES cells assessed as growth percentage at 10 uM incubated for 48 hrs by sulforhodamine B assay relative to control; type: functional; details: read-out: Activity
OVCAR-4 = assay: Growth inhibition of human OVCAR-4 cells assessed as growth percentage at 100 uM incubated for 48 hrs by sulforhodamine B assay relative to control; type: functional; details: read-out: Activity
UO-31 [16] = assay: Growth inhibition of human UO-31 cells assessed as growth percentage at 1 uM incubated for 48 hrs by sulforhodamine B assay relative to control; type: functional; details: read-out: Activity

High affinity nerve growth factor receptor, sequence (P04629 whole entry): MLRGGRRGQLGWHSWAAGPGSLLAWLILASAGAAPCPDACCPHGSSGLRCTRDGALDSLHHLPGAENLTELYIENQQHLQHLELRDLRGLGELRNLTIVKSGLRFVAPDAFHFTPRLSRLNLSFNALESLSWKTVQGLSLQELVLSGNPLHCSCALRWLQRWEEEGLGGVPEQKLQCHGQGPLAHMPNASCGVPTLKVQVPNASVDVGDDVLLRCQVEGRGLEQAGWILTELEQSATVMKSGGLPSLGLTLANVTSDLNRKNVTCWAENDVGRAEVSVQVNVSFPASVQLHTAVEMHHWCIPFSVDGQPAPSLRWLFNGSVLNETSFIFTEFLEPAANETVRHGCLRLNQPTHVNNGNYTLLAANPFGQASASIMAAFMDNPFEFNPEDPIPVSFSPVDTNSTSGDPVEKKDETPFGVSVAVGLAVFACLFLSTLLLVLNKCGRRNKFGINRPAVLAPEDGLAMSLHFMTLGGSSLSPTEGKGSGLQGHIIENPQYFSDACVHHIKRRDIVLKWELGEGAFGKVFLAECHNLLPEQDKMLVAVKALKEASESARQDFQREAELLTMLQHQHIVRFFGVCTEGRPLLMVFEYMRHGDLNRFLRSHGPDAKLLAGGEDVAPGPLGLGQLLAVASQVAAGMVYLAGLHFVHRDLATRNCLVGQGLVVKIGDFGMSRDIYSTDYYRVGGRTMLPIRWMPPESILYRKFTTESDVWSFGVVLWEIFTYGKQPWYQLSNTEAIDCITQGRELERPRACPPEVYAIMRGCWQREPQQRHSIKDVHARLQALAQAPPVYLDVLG

## Nc1nc2[nH]c(CN3CCN(c4cc(Cl)cc(Cl)c4)CC3)c(CN3CCN(c4cc(Cl)cc(Cl)c4)CC3)c2c(=O)[nH]1
PC-3
  growth at 10 µM: 59.6%
SF-295 [1]
  growth at 100 µM: -33%
OVCAR-8; Homo sapiens, OVCAR-8, 48 h
  GI50: 2050 nM
  TGI: 4480 nM
SF-295 [2]
  growth at 1 µM: 89%
SW-620
  growth at 10 µM: -16.3%
SNB-75
  growth at 10 µM: 63.7%
MOLT-4; Homo sapiens, MOLT-4, 48 h
  GI50: 2580 nM
  TGI: 8560 nM
HCT-116
  inhibition of growth at 10 µM: 91.7%
HT-29 [3]
  growth at 1 µM: 91%
NCI-H322M [4]
  growth at 1 µM: 100%
KM12 [5]
  growth at 10 µM: 64.2%
HT-29 [6]
  growth at 0.1 µM: 110%
HCT-15; Homo sapiens
  TGI: 4050 nM
HCT-15; Homo sapiens, HCT-15, 48 h
  GI50: 1930 nM
OVCAR-3
  growth at 0.01 µM: 105%
K562
  growth at 0.1 µM: 96%
BT-549
  growth at 0.01 µM: 91%
NCI-H23
  growth at 0.1 µM: 107%
UO-31 [7]
  growth at 0.1 µM: 92%
NCI/ADR-RES [8]
  TGI: 100000 nM and > 1000 nM
  CC50: > 100000 nM
MCF7
  growth at 1 µM: 79%
HT-29 [9]
  growth at 0.01 µM: 105%
SR
  growth at 1 µM: 67%
[10]
  IC50: 12400 nM
RPMI-8226
  growth at 0.1 µM: 102%
NCI-H522
  growth at 100 µM: -60%
MDA-MB-231; Homo sapiens
  TGI: 3980 nM
MDA-MB-231; Homo sapiens, MDA-MB-231, 48 h
  GI50: 2010 nM
SK-BR-3
  GI50: 3220 nM
KM12 [11]
  growth at 1 µM: 99%
NCI-H322M [12]
  CC50: 73200 nM and 7320 nM
HOP-62 [13]
  GI50: 1670 nM
  TGI: 3450 nM
SF-268
  GI50: 1770 nM
  TGI: 3350 nM
NCI-H460; Homo sapiens, NCI-H460
  TGI: 3940 nM
NCI-H460; Homo sapiens, NCI-H460, 48 h
  GI50: 1960 nM
HOP-62 [14]
  growth at 0.01 µM: 81%
Hs-578T
  GI50: 1780 nM
  TGI: 4220 nM
SNB-19
  growth at 10 µM: 79.8%
NCI/ADR-RES [15]
  growth at 10 µM: 87.6%
OVCAR-4
  growth at 100 µM: -82%
UO-31 [16]
  growth at 1 µM: 90%

## CCCCCCCC(=O)Nc1nc2[nH]c(CN3CCN(Cc4cccc(F)c4)CC3)c(CN3CCN(Cc4cccc(F)c4)CC3)c2c(=O)[nH]1
PC-3
  growth at 10 µM: -95.1%
SF-295 [1]
  growth at 100 µM: -81%
OVCAR-8; 48 h
  GI50: 210 nM
  TGI: 410 nM
  CC50: 800 nM
OVCAR-8; Homo sapiens, OVCAR-8, 48 h
  GI50: 205 nM
  TGI: 405 nM
  CC50: 801 nM
SF-295 [2]
  growth at 1 µM: 74%
SW-620
  growth at 10 µM: -78.5%
SNB-75
  growth at 10 µM: -99.2%
MOLT-4; 48 h
  GI50: 260 nM
  LC50 (concentration killing 50% of cells): > 100000 nM
  TGI: 740 nM
MOLT-4; Homo sapiens, MOLT-4, 48 h
  GI50: 258 nM
  LC50 (concentration killing 50% of cells): 100000 nM
  TGI: 736 nM
HCT-116
  inhibition of growth at 10 µM: 95.5%
HT-29 [3]
  growth at 1 µM: -26%
NCI-H322M [4]
  growth at 1 µM: 77%
KM12 [5]
  growth at 10 µM: -88.9%
HT-29 [6]
  growth at 0.1 µM: 104%
HCT-15; 48 h
  GI50: 300 nM
HCT-15; Homo sapiens
  TGI: 1010 nM
HCT-15; Homo sapiens, HCT-15, 48 h
  GI50: 295 nM
HCT-15; Homo sapiens, HCT-15, read-out: LC50 (the source's name)
  CC50: 3750 nM
OVCAR-3
  growth at 0.01 µM: 100%
K562
  growth at 0.1 µM: 87%
BT-549
  growth at 0.01 µM: 110%
NCI-H23
  growth at 0.1 µM: 100%
UO-31 [7]
  growth at 0.1 µM: 84%
NCI/ADR-RES [8]; Homo sapiens, NCI/ADR-RES
  GI50: 1500 nM
  TGI: 3010 nM
  CC50: 6040 nM
MCF7
  growth at 1 µM: -51%
HT-29 [9]
  growth at 0.01 µM: 96%
SR
  growth at 1 µM: -31%
[10]
  IC50: 2250 nM
RPMI-8226
  growth at 0.1 µM: 97%
NCI-H522
  growth at 100 µM: -79%
MDA-MB-231; 48 h
  GI50: 590 nM
MDA-MB-231; Homo sapiens
  TGI: 1960 nM
MDA-MB-231; Homo sapiens, MDA-MB-231, 48 h
  GI50: 587 nM
MDA-MB-231; Homo sapiens, MDA-MB-231, read-out: LC50 (the source's name)
  CC50: 5380 nM
SK-BR-3
  GI50: 3910 nM
KM12 [11]
  growth at 1 µM: 43%
NCI-H322M [12]; Homo sapiens, NCI-H322M
  GI50: 1460 nM
  TGI: 2920 nM
  CC50: 5830 nM
HOP-62 [13]
  GI50: 1420 nM
  TGI: 2850 nM
HOP-62 [13]; read-out: LC50 (the source's name)
  CC50: 5700 nM
SF-268
  GI50: 1260 nM
  LC50: 5730 nM
  TGI: 2680 nM
NCI-H460; 48 h
  GI50: 380 nM
NCI-H460; Homo sapiens, NCI-H460
  LC50: 4310 nM
  TGI: 1300 nM
NCI-H460; Homo sapiens, NCI-H460, 48 h
  GI50: 383 nM
HOP-62 [14]
  growth at 0.01 µM: 99%
Hs-578T
  GI50: 1720 nM
  TGI: 4180 nM
SNB-19
  growth at 10 µM: -81.6%
NCI/ADR-RES [15]
  growth at 10 µM: -66.1%
OVCAR-4
  growth at 100 µM: -91%
UO-31 [16]
  growth at 1 µM: 25%
